Assay results: patent US5041567A, “Antibacterial monic acid derivatives” (Beecham Group plc, priority 1982, dated 1991)
Values after ≈ are worked out from the molar mass of the structure shown.

Key:
M. suipneumoniae JF 435 = assay: MIC against mycoplasma in vitro; format: cell-based; settings: Mesomycoplasma hyopneumoniae, JF435, 144 h
M. suipneumoniae HK(2) = assay: MIC against mycoplasma in vitro; format: cell-based; settings: Mesomycoplasma hyopneumoniae, 144 h; M. suipneumoniae HK(2); 6 days, 37° C.; read-out: MIC
M. suipneumoniae Str. 11 = assay: MIC against mycoplasma in vitro; format: cell-based; settings: Mesomycoplasma hyopneumoniae, STR.11, 144 h
[1] = system: M. suipneumoniae J2206/183^b; assay: MIC against mycoplasma in vitro; format: cell-based; settings: Mesomycoplasma hyopneumoniae, 144 h; M. suipneumoniae J2206/183^b; 6 days, 37° C.; read-out: MIC
M. suipneumoniae MS 16 = assay: MIC against mycoplasma in vitro; format: cell-based; settings: Mesomycoplasma hyopneumoniae, MS16, 144 h
M. suipneumoniae LABER = assay: MIC against mycoplasma in vitro; format: cell-based; settings: Mesomycoplasma hyopneumoniae, 144 h
M. suipneumoniae UCD 1 = assay: MIC against mycoplasma in vitro; format: cell-based; settings: Mesomycoplasma hyopneumoniae, UCD1, 144 h
M. suipneumoniae TAM 6N = assay: MIC against mycoplasma in vitro; format: cell-based; settings: Mesomycoplasma hyopneumoniae, TAM6N, 144 h; M. suipneumoniae TAM 6N; 6 days, 37° C.; read-out: MIC
[2] = system: M. suipneumoniae ATCC 25095; assay: MIC against mycoplasma in vitro; format: cell-based; settings: Mesomycoplasma hyopneumoniae, ATCC25095, 144 h
[3] = system: M. suipneumoniae NCTC 10110; assay: MIC against mycoplasma in vitro; format: cell-based; settings: Mesomycoplasma hyopneumoniae, NCTC10110, 144 h; M. suipneumoniae NCTC 10110; 6 days, 37° C.; read-out: MIC
M. hyorhinis ATCC 23234 = assay: MIC against mycoplasma in vitro; format: cell-based; settings: Mesomycoplasma hyorhinis, ATCC23234, 144 h; M. hyorhinis ATCC 23234; 6 days, 37° C.; read-out: MIC
M. hyorhinis ATCC 25021 = assay: MIC against mycoplasma in vitro; format: cell-based; settings: Mesomycoplasma hyorhinis, ATCC25021, 144 h; M. hyorhinis ATCC 25021; 6 days, 37° C.; read-out: MIC
[4] = system: M. hyosynoviae ATCC 25591; assay: MIC against mycoplasma in vitro; format: cell-based; settings: 144 h
M. bovis NCTC 10131 = assay: microbe, parasite or virus in culture; format: cell-based; settings: NCTC10131, 144 h
[5] = system: M. bovigenitalium ATCC 14173; assay: MIC against mycoplasma in vitro; format: cell-based; settings: 144 h
M. dispar NCTC 10125 = assay: MIC against mycoplasma in vitro; format: cell-based; settings: 144 h
M. gallisepticum S6 = assay: MIC against mycoplasma in vitro; format: cell-based; settings: Mycoplasmoides gallisepticum, S6, 144 h
M. pneumoniae ATCC 15492 = assay: MIC against mycoplasma in vitro; format: cell-based; settings: Mycoplasmoides pneumoniae, ATCC15492, 144 h; M. pneumoniae ATCC 15492; 6 days, 37° C.; read-out: MIC
E. coli NCTC 10418 = assay: MIC against veterinary bacteria in vitro; settings: Escherichia coli, NCTC10418, 18 h
Experimental: (§1) The activity of the compounds of the Examples against various veterinarily important bacteria, was assayed in vitro using two-fold serial dilutions in Diagnostic Sensitivity Test Agar inoculated with 10^4 organisms.

E. coli E1 = assay: MIC against veterinary bacteria in vitro; settings: Escherichia coli, E1, 18 h
Experimental: as §1

S. dublin S7 = assay: MIC against veterinary bacteria in vitro; settings: Salmonella enterica, S7, 18 h
Experimental: as §1

S. typhimurium S18 = assay: MIC against veterinary bacteria in vitro; settings: Salmonella enterica, TYPHIMURIUM, 18 h
Experimental: as §1

Bord. bronchiseptica B08 = assay: MIC against veterinary bacteria in vitro; settings: Bordetella bronchiseptica, B08, 18 h
Experimental: as §1

Bord. bronchiseptica B09 = assay: MIC against veterinary bacteria in vitro; settings: Bordetella bronchiseptica, B09, 18 h
Experimental: as §1

Past. multocida PA1 = assay: MIC against veterinary bacteria in vitro; settings: Pasteurella multocida, PA1, 18 h
Experimental: as §1

Past. multocida PA2 = assay: MIC against veterinary bacteria in vitro; settings: Pasteurella multocida, PA2, 18 h
Experimental: as §1

Past. haemolytica PA5 = assay: MIC against veterinary bacteria in vitro; settings: Mannheimia haemolytica, PA5, 18 h
Experimental: as §1

[6] = system: Erysipelothrix rhusiopathiae NCTC 8163; assay: MIC against veterinary bacteria in vitro; settings: Erysipelothrix rhusiopathiae, NCTC8163, 18 h
Experimental: as §1

[7] = system: Corynebacterium pyogenes CY1; assay: MIC against veterinary bacteria in vitro; settings: CY1, 18 h
Experimental: as §1

[8] = system: Staph. aureus B4 (pen. resistant); assay: MIC against veterinary bacteria in vitro; settings: Staphylococcus aureus, 18 h
Experimental: as §1

[9] = system: Staph. aureus 152 (pen. sens); assay: MIC against veterinary bacteria in vitro; settings: Staphylococcus aureus, 18 h
Experimental: as §1

Staph. aureus Oxford = assay: MIC against veterinary bacteria in vitro; settings: Staphylococcus aureus, 18 h
Experimental: as §1

[10] = system: Strep. suis (group D) SPS11; assay: MIC against veterinary bacteria in vitro; settings: Streptococcus suis, 18 h
Experimental: as §1

Strep. uberis SPU1 = assay: MIC against veterinary bacteria in vitro; settings: Streptococcus uberis, SPU1, 18 h
Experimental: as §1

Strep. dysgalactiae SPD1 = assay: MIC against veterinary bacteria in vitro; settings: Streptococcus dysgalactiae, SPD1, 18 h
Experimental: as §1

Strep. agalactiae SPA1 = assay: MIC against veterinary bacteria in vitro; settings: Streptococcus agalactiae, SPA1, 18 h
Experimental: as §1

B. subtilis ATCC 6633 = assay: MIC against veterinary bacteria in vitro; settings: Bacillus subtilis, ATCC6633, 18 h
Experimental: as §1

**Q.** `C/C(=C\c1ncc(-c2ccc(Br)s2)o1)C[C@@H]1OC[C@H](C[C@@H]2O[C@H]2[C@@H](C)[C@H](C)O)[C@@H](O)[C@H]1O` [Example 28, 5-[2-(5-Bromo)-thienyl]-2-(1-normon-2-yl)oxazole A] was tested. Which MIC (M. suipneumoniae JF 435) did it give?
**A.** The MIC was 1 µg/mL (≈ 1.89 µM).

**Q.** What about the MIC (M. suipneumoniae HK(2)) of the same molecule?
**A.** Its MIC is 0.5 µg/mL (≈ 0.946 µM).

**Q.** And the MIC (M. suipneumoniae Str. 11)?
**A.** Its MIC is 0.25 µg/mL (≈ 0.473 µM).

**Q.** And the MIC [1]?
**A.** Its MIC is 0.5 µg/mL (≈ 0.946 µM).

**Q.** And the MIC (M. suipneumoniae MS 16)?
**A.** Its MIC is 0.25 µg/mL (≈ 0.473 µM).

**Q.** And the MIC (M. suipneumoniae LABER)?
**A.** The MIC was 0.25 µg/mL (≈ 0.473 µM).

**Q.** What about the MIC (M. suipneumoniae UCD 1) of the same molecule?
**A.** Its MIC is 0.25 µg/mL (≈ 0.473 µM).

**Q.** What about the MIC (M. suipneumoniae TAM 6N) of the same molecule?
**A.** Its MIC is 0.5 µg/mL (≈ 0.946 µM).

**Q.** And the MIC [2]?
**A.** Its MIC is 0.25 µg/mL (≈ 0.473 µM).

**Q.** And the MIC [3]?
**A.** The MIC was 0.5 µg/mL (≈ 0.946 µM).

**Q.** What about the MIC (M. hyorhinis ATCC 23234) of the same molecule?
**A.** The MIC was 0.5 µg/mL (≈ 0.946 µM).

**Q.** What about the MIC (M. hyorhinis ATCC 25021) of the same molecule?
**A.** The MIC was 0.5 µg/mL (≈ 0.946 µM).

**Q.** What about the MIC [4] of the same molecule?
**A.** The MIC was 1 µg/mL (≈ 1.89 µM).

**Q.** And the MIC (M. bovis NCTC 10131)?
**A.** Its MIC is 0.05 µg/mL (≈ 0.0946 µM).

**Q.** And the MIC [5]?
**A.** Its MIC is 0.1 µg/mL (≈ 0.189 µM).

**Q.** And the MIC (M. dispar NCTC 10125)?
**A.** The MIC was 0.1 µg/mL (≈ 0.189 µM).

**Q.** What about the MIC (M. gallisepticum S6) of the same molecule?
**A.** The MIC was 2.5 µg/mL (≈ 4.73 µM).

**Q.** And the MIC (M. pneumoniae ATCC 15492)?
**A.** The MIC was 5 µg/mL (≈ 9.46 µM).

**Q.** What about the MIC (E. coli NCTC 10418) of the same molecule?
**A.** The MIC was over 80 µg/mL.

**Q.** And the MIC (E. coli E1)?
**A.** Its MIC is over 80 µg/mL.

**Q.** What about the MIC (S. dublin S7) of the same molecule?
**A.** Its MIC is over 80 µg/mL.

**Q.** And the MIC (S. typhimurium S18)?
**A.** Its MIC is over 80 µg/mL.

**Q.** What about the MIC (Bord. bronchiseptica B08) of the same molecule?
**A.** The MIC was 80 µg/mL (≈ 151 µM).

**Q.** What about the MIC (Bord. bronchiseptica B09) of the same molecule?
**A.** Its MIC is 20 µg/mL (≈ 37.8 µM).

**Q.** What about the MIC (Past. multocida PA1) of the same molecule?
**A.** The MIC was 20 µg/mL (≈ 37.8 µM).

**Q.** What about the MIC (Past. multocida PA2) of the same molecule?
**A.** Its MIC is 2.5 µg/mL (≈ 4.73 µM).

**Q.** And the MIC (Past. haemolytica PA5)?
**A.** The MIC was 80 µg/mL (≈ 151 µM).

**Q.** What about the MIC [6] of the same molecule?
**A.** The MIC was 40 µg/mL (≈ 75.7 µM).

**Q.** What about the MIC [7] of the same molecule?
**A.** The MIC was over 80 µg/mL.

**Q.** And the MIC [8]?
**A.** The MIC was 0.156 µg/mL (≈ 0.295 µM).

**Q.** What about the MIC [9] of the same molecule?
**A.** Its MIC is 0.312 µg/mL (≈ 0.59 µM).

**Q.** And the MIC (Staph. aureus Oxford)?
**A.** The MIC was 0.625 µg/mL (≈ 1.18 µM).

**Q.** And the MIC [10]?
**A.** Its MIC is 10 µg/mL (≈ 18.9 µM).

**Q.** What about the MIC (Strep. uberis SPU1) of the same molecule?
**A.** The MIC was under 0.039 µg/mL.

**Q.** What about the MIC (Strep. dysgalactiae SPD1) of the same molecule?
**A.** The MIC was 0.312 µg/mL (≈ 0.59 µM).

**Q.** And the MIC (Strep. agalactiae SPA1)?
**A.** The MIC was 1.25 µg/mL (≈ 2.37 µM).

**Q.** And the MIC (B. subtilis ATCC 6633)?
**A.** Its MIC is 0.07 µg/mL (≈ 0.132 µM).
